# Experimental data published in patent US12378268B2, “Heterocyclic THR-β receptor agonist compound and preparation method and use therefor” (Hepagene Therapeutics (HK) Limited, priority 2019, dated 2025).
# Like-named read-outs stand apart in the source and are kept apart here.
# How the values were obtained:
# [1] = biological target: T1, THR-β (Homo sapiens, UniProt P10828); assay: Test of the binding ability of the compound to TRβ (TRβ LBD/RXR, biotin-SRC2-2 co-activating peptide, 665/615 nm fluorescence ratio); type: biochemical; conditions: for Emax: activity relative to positive control; for α/β selectivity (multiple): calculated after being standardized with T3
# T1 construct: TRB LBD, GST purchased from Thermo Fisher; purchased Thermo Fisher PV4762
# T1 sequence (P10828 217-461 limits assumed, other chains not shown): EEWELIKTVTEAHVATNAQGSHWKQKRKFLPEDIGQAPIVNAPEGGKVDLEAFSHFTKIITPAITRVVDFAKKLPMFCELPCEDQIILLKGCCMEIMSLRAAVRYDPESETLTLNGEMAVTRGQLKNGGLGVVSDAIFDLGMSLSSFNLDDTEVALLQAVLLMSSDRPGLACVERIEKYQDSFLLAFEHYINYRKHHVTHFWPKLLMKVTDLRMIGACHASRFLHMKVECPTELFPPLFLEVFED
# T1 sequence (P28702 whole entry partner, other chains not shown, the tested form may be a part): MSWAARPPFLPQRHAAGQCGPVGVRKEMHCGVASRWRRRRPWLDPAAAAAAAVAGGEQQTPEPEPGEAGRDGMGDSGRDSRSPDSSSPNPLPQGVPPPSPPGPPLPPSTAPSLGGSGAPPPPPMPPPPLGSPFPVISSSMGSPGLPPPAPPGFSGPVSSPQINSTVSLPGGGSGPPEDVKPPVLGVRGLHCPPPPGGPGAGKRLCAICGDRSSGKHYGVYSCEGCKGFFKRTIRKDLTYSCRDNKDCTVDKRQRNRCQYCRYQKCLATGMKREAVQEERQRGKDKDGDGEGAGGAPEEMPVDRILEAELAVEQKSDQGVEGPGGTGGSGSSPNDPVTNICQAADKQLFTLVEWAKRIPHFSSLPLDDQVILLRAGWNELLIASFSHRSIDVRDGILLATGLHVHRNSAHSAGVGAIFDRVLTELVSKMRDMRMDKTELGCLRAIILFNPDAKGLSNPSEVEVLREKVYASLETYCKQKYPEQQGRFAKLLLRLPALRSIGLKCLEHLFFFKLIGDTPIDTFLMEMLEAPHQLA
# Procedure: 1. Main experimental materials and instruments:
# Biotin-SRC2-2 co-activating peptide purchased from Sangon Biotech (Shanghai) Co., Ltd.
# TRB LBD, GST purchased from Thermo Fisher (product No. PV4762)
# Europium-conjugated anti-glutathione antibody purchased from Cisbio (product No. 61GSTKLB)
# Streptavidin-D2 purchased from Cisbio (product No. 610SADAB)
# (§1) 4.2 The activity percentage was calculated as follows: […]
# (§2) RatioCompound: Average of the relative ratios of the compound wells of the embodiments
# (§3) RatioPositive: Average of the relative ratios of all positive control wells.
# (§4) RatioBlank: Average of the relative ratios of all negative control wells.
# (§5) EC50 was calculated by fitting the relationship between activity (%) and compound logarithmic concentration with Graphpad 5.0 by a nonlinear regression method.
# (§6) Y=Bottom+ (top-bottom)/(1+10^((LogEC50−X)*slope))
# (§7) X: Compound logarithmic concentration Y: Percentage activity
# [2] = biological target: T2, THR-α (Homo sapiens, UniProt P10827); assay: Test of the binding ability of the compound to TRα (TRα LBD/RXRα, biotin-SRC2-2 co-activating peptide, 665/615 nm fluorescence ratio); type: biochemical; conditions: for Emax: activity relative to positive control
# T2 construct: TR-a LBD, GST purchased from Thermo Fisher; purchased Thermo Fisher PV4762
# T2 sequence (P10827 163-410 isoform P10827-2 limits assumed, other chains not shown): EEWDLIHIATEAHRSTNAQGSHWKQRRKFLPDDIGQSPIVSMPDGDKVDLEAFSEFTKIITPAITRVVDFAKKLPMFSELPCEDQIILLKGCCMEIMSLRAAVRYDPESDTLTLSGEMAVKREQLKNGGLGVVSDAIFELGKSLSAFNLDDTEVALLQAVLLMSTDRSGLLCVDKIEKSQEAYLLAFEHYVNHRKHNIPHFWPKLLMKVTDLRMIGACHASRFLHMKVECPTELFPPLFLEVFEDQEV
# T2 sequence (P19793 whole entry partner, other chains not shown, the tested form may be a part): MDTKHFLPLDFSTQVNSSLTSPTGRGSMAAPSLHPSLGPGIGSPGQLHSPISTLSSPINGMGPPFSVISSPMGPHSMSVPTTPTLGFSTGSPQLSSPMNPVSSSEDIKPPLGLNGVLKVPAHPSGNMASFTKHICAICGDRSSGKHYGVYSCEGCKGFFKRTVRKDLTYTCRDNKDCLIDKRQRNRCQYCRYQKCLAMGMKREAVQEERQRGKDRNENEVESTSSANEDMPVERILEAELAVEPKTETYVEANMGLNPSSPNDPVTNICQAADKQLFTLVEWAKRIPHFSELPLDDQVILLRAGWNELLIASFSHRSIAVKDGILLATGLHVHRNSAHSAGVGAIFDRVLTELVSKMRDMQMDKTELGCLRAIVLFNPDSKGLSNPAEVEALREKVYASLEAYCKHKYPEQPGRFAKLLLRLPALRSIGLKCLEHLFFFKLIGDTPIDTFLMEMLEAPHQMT
# Procedure: as §1, §2, §3, §4, §5, §6, §7
# [3] = Drug metabolism experiment on prodrug in SD rats: concentration in liver compared with blood; type: in vivo; conditions: SD rats; for concentration at 1 h / concentration at 4 h / concentration at 8 h / Kp at 1 h / Kp at 4 h / Kp at 8 h: male, rat, po, 3 mg/kg; for Kp at 1 h / Kp at 4 h / Kp at 8 h: read-out: Liver-to-blood ratio; for transformation of prodrug into active metabolite 1 in the liver: oral 3 mg/kg, in words
# Procedure: (§8) Test 3: Drug metabolism experiment on prodrug in SD rats
# (§9) In the experiment, […] of 12 male SD rats having similar body weights were selected and orally administered compound 9, compound 10, and the control drug VK2809 (the prodrug of MB07444, structured as shown below) at a dose of 3 mg/kg at a single time, respectively, and blood and liver samples were collected at different time points.
# (§10) Solutions of compound 9/compound 10 and VK2809 with a final concentration of 0.6 mg/mL were respectively prepared, and the ratio between the solvents used for the preparation was PEG400: pure water =50:50 (v/v).
# (§11) No randomization was performed. The weights of the animals were measured before administration, and healthy animals with similar body weights were selected for inclusion in the experiment. The oral dose was 3 mg/kg.
# (§12) At least 0.2 mL of blood was collected from the tail vein or jugular vein, and heparin sodium was used as the anticoagulant.
# (§13) After being collected, a blood sample was placed in a marked ice-water bath centrifuge tube, plasma was quickly separated by centrifugation under centrifugation conditions: 3500 rpm, 10 minutes, and 4° C., and the plasma was stored under −40° C. for testing.
# After the liver sample was collected, its surface was washed with normal saline, dried with medical gauze, placed in a labeled small ziplock bag, and stored under −40° C. for testing.
# (§14) Q TRAP6500 mass spectrometer with ESI source was used to perform negative ion MRM scanning. An LC-MS/MS analysis method was used to detect the contents of compound 9, compound 10 and its active metabolite 1, VK2809 and its active metabolite MB07444 in the plasma and liver. The metabolic kinetics data analysis software WinNonlin 7.0 was used to calculate the concentration data of plasma, and the non-compartmental model (NCA) method was used to calculate the pharmacokinetic parameters.
# The parameters of concentration in the livers of the SD rats and a comparison with the concentration in plasma are shown in Table 3 below: […]
# [4] = Drug metabolism experiment on prodrug in SD rats: plasma pharmacokinetic parameters; type: in vivo; conditions: for concentration of prodrug in plasma / transformation of prodrug into the active parent drug after oral administration: oral 3 mg/kg, in words
# Procedure: as §8, §9, §10, §11, §12
# 15 min, 30 min, 1 h, 2 h, 4 h, 6 h, 8 h, 24 h after administration.
# as §13, §14
# [5] = male, Sprague-Dawley (SD), rat, plasma, po, 3 mg/kg, oral 3 mg/kg VK2809
# [6] = plasma, oral 3 mg/kg Compound 9
# [7] = male, Sprague-Dawley (SD), rat, plasma, po, 3 mg/kg, oral 3 mg/kg Compound 10
structure (smiles),measurement,setting,value
"Cc1cc(OCP(=O)(O)O)cc(C)c1Oc1ccc(O)c2c1CCC2(C)C [Compound 5, ((4-((7-hydroxy-1,1-dimethyl-2,3-dihydro-1H-indene-4-position)oxy)-3,5-dimethylphenoxy)methyl) phosphoric acid]",EC50,[1],< 100 nM
same,Emax,[1],110%
same,EC50,[2],< 200 nM
same,Emax,[2],102%
"Cc1cc(OCP(=O)(O)O)cc(C)c1Cc1ccc(O)c2c1CCCC2 [B, reference compound]",EC50,[1],41 nM
same,Emax,[1],111%
same,α/β selectivity (multiple),[1],11.4 multiple
same,EC50,[2],230 nM
same,Emax,[2],106%
"Cc1cc(OCP(=O)(O)O)cc(C)c1Cc1ccc(O)c2ccccc12 [A, ((4-((4-hydroxynaphthyl-1-yl)methyl)-3,5-dimethylphenoxy)methyl) phosphoric acid, reference compound]",EC50,[1],109 nM
same,Emax,[1],100%
same,α/β selectivity (multiple),[1],4.7 multiple
same,EC50,[2],280 nM
same,Emax,[2],106%
Cc1cc(OCP(=O)(O)O)cc(C)c1Cc1ccc(O)c2c1CCC2C (stereo not drawn) [Compound 2],EC50,[1],< 100 nM
same,Emax,[1],104%
same,EC50,[2],< 200 nM
same,Emax,[2],98.3%
"Cc1cc(OC[P@@]2(=O)OCC[C@@H](c3cccc(Cl)c3)O2)cc(C)c1Cc1ccc(O)c(C(C)C)c1 [VK2809, reference compound]",Ct Blood,"[3]; 24 h, oral 3 mg/kg VK-2809",BLQ
same,Ct Liver,"[3]; 24 h, oral 3 mg/kg VK-2809",BLQ
same,concentration at 1 h,"[3]; Sprague-Dawley, liver, 1 h, oral 3 mg/kg VK-2809, read-out: Ct Liver",39 ng/g
same,concentration at 4 h,"[3]; Sprague-Dawley, liver, 4 h, oral 3 mg/kg VK-2809, read-out: Ct Liver",30 ng/g
same,concentration at 8 h,"[3]; Sprague-Dawley, liver, 8 h, oral 3 mg/kg VK-2809, read-out: Ct Liver",17 ng/g
same,Kp at 1 h,"[3]; Sprague-Dawley, liver/plasma, 1 h, oral 3 mg/kg VK-2809",8.6
same,Kp at 4 h,"[3]; Sprague-Dawley, liver/plasma, 4 h, oral 3 mg/kg VK-2809",5.2
same,Kp at 8 h,"[3]; Sprague-Dawley, liver/plasma, 8 h, oral 3 mg/kg VK-2809",4
same,concentration at 1 h,"[3]; Sprague-Dawley, plasma, 1 h, oral 3 mg/kg VK-2809, read-out: Ct Blood",2.9 ng/g
same,concentration at 4 h,"[3]; Sprague-Dawley, plasma, 4 h, oral 3 mg/kg VK-2809, read-out: Ct Blood",4.8 ng/g
same,concentration at 8 h,"[3]; Sprague-Dawley, plasma, 8 h, oral 3 mg/kg VK-2809, read-out: Ct Blood",5.6 ng/g
same,AUC(0-inf),[4]; [5],83.3 ng·h/mL
same,AUC(0-t),[4]; [5],43.6 ng·h/mL
same,Tmax,[4]; [5],6 h
same,half-life,[4]; [5],4.81 h
same,Cmax,"[4]; male, Sprague-Dawley (SD), rat, plasma, po, 3 mg/kg, plasma, oral 3 mg/kg VK2809, read-out: Cmax",9.9 ng/mL
same,Kel,"[4]; plasma, oral 3 mg/kg VK2809",0.273 h⁻¹
Cc1cc(OC[P@@](=O)(N[C@@H](C)C(=O)OC(C)C)Oc2ccccc2)cc(C)c1Cc1ccc(O)c2c1CCC2(C)C [Compound 9],Ct Blood,"[3]; 1 h, oral 3 mg/kg Compound 9",BLQ
same,Ct Liver,"[3]; 1 h, oral 3 mg/kg Compound 9",BLQ
same,Ct Blood,"[3]; 4 h, oral 3 mg/kg Compound 9",BLQ
same,Ct Liver,"[3]; 4 h, oral 3 mg/kg Compound 9",BLQ
same,Ct Blood,"[3]; 8 h, oral 3 mg/kg Compound 9",BLQ
same,Ct Liver,"[3]; 8 h, oral 3 mg/kg Compound 9",BLQ
same,Ct Blood,"[3]; 24 h, oral 3 mg/kg Compound 9",BLQ
same,Ct Liver,"[3]; 24 h, oral 3 mg/kg Compound 9",BLQ
same,transformation of prodrug into active metabolite 1 in the liver,[3],rapidly metabolized in the liver to produce active metabolite compound 1
same,concentration of prodrug in plasma,[4],not high
same,transformation of prodrug into the active parent drug after oral administration,[4],quickly transformed into the active parent drug compound 1
same,AUC0−t,[4]; [6],BLQ
same,AUC0−∞,[4]; [6],BLQ
same,Cmax,[4]; [6],BLQ
"CC1(C)CCc2c(Cc3c(Cl)cc(OCP(=O)(O)O)cc3Cl)ccc(O)c21 [Compound 6, ((3,5-dichloro-4-((7-hydroxy-1,1-dimethyl-2,3-dihydro-1H-indene-4-position)methyl)phenoxy)methyl) phosphoric acid]",EC50,[1],108 nM
same,Emax,[1],79%
same,α/β selectivity (multiple),[1],0.7 multiple
same,EC50,[2],50 nM
same,Emax,[2],99.2%
Cc1cc(OC[P@@]2(=O)OCC[C@@H](c3cccc(Cl)c3)O2)cc(C)c1Cc1ccc(O)c2c1CCC2(C)C [Compound 10],Ct Blood,"[3]; 24 h, oral 3 mg/kg Compound 10",BLQ
same,Ct Liver,"[3]; 24 h, oral 3 mg/kg Compound 10",BLQ
same,transformation of prodrug into active metabolite 1 in the liver,[3],much better than that of VK2809
same,Kp at 1 h,"[3]; Sprague-Dawley (SD), liver / plasma (heading prints blood), 1 h, oral 3 mg/kg Compound 10",16.2
same,Kp at 4 h,"[3]; Sprague-Dawley (SD), liver / plasma (heading prints blood), 4 h, oral 3 mg/kg Compound 10",7.8
same,Kp at 8 h,"[3]; Sprague-Dawley (SD), liver / plasma (heading prints blood), 8 h, oral 3 mg/kg Compound 10",4.7
same,concentration at 1 h,"[3]; Sprague-Dawley (SD), liver, 1 h, oral 3 mg/kg Compound 10, read-out: Ct Liver",141 ng/g
same,concentration at 4 h,"[3]; Sprague-Dawley (SD), liver, 4 h, oral 3 mg/kg Compound 10, read-out: Ct Liver",273 ng/g
same,concentration at 8 h,"[3]; Sprague-Dawley (SD), liver, 8 h, oral 3 mg/kg Compound 10, read-out: Ct Liver",46.5 ng/g
same,concentration at 1 h,"[3]; Sprague-Dawley (SD), plasma (heading prints blood), 1 h, oral 3 mg/kg Compound 10, read-out: Ct Blood",8.8 ng/g
same,concentration at 4 h,"[3]; Sprague-Dawley (SD), plasma (heading prints blood), 4 h, oral 3 mg/kg Compound 10, read-out: Ct Blood",7.9 ng/g
same,concentration at 8 h,"[3]; Sprague-Dawley (SD), plasma (heading prints blood), 8 h, oral 3 mg/kg Compound 10, read-out: Ct Blood",10.3 ng/g
same,AUC(0-inf),[4]; [7],89.3 ng·h/mL
same,AUC(0-t),[4]; [7],69.2 ng·h/mL
same,Tmax,[4]; [7],4.67 h
same,half-life,[4]; [7],1.73 h
same,Cmax,"[4]; male, Sprague-Dawley (SD), rat, plasma, po, 3 mg/kg, plasma, oral 3 mg/kg Compound 10, read-out: Cmax",19.9 ng/mL
same,concentration of prodrug in plasma,[4],not high
same,transformation of prodrug into the active parent drug after oral administration,[4],quickly transformed into the active parent drug compound 1
same,Kel,"[4]; plasma, oral 3 mg/kg Compound 10",0.428 h⁻¹
Cc1cc(OCP(=O)(O)O)cc(C)c1Cc1ccc(O)c2c1CCCC2(C)C [Compound 3],EC50,[1],104 nM
same,Emax,[1],100%
same,α/β selectivity (multiple),[1],4.8 multiple
same,EC50,[2],270 nM
same,Emax,[2],105%
"Cc1cc(OCP(=O)(O)O)cc(C)c1Cc1ccc(O)c2c1CCCCC2(C)C [Compound 4, ((4-((4-hydroxy-5,5-dimethyl-6,7,8,9-tetrahydro-5H-benzo[7]annun-1-yl)methyl)-3,5-dimethylphenoxy)methyl) phosphoric acid]",EC50,[1],> 1000 nM
same,EC50,[2],> 10000 nM
